Columns and labels:
[1] = test system: Plasmodium berghei ANKA (PbA); test: Treatment of PbA-infected mice presenting clinical cerebral malaria (survival, motor score, parasitemia); format: in vivo, C57B1/6 mice; details: for survival: mice with CM
Procedure: Eight to 10-week old C57B1/6 mice (Jackson Laboratories, ME) were inoculated intraperitoneally with 1×10^6 Plasmodium berghei ANKA (PbA) parasites expressing the GFP protein (obtained from MR4-NIH, deposited by C J Anders and A Waters). Parasitemia, body weight and rectal temperature were checked daily from day 4. […] Five tests were performed: transfer arousal, locomotor activity, tail elevation, wire maneuver and righting reflex. For each test, mice received an individual score, and the sum of scores was used to create a composite score.
PbA-infected mice presenting poor righting reflex, hypothermia and/or other clinical signs of neurological involvement such as ataxia, limb paralysis, seizures and/or roll-over were treated with artemether (Artesiane, Dafra Pharma, Belgium, a kind gift of Dr Alberto Moreno, Emory University, Atlanta, Ga.) given IP at 50 mg/kg, in combination with nimodipine (Sigma, St Louis, Mo.) or vehicle (ethanol:polyethyleneglycol (PEG) 400:saline in 1:1:8 v/v). Nimodipine was dissolved in ethanol (EMD, N.J.), dispersed with polyethyleneglycol 400 (PEG, Sigma) and then saline was added (1:1:8 v/v) and mixed thoroughly. This solution was administered intraperitoneally in three different doses: 1.3 mg/kg, 4 mg/kg and 12 mg/kg. […] Parasitemia, motor behavior and rectal temperature were checked at each timepoint and daily afterwards. After treatment, parasitemia was checked by microscopical examination of Giemsa-stained blood smears to differentiate viable from dead parasites.

[2] = test system: PbA-infected mice with clinical CM; test: Intravital microscopy of pial vessels (closed cranial window) in PbA-infected mice with clinical CM; format: in vivo; details: nimodipine 4 mg/kg IP, 30 minutes after injection
Source text: Briefly, mice were anesthetized with ketamine-xylazine, the head held on a stereotaxic frame, the scalp cut off and a 3-4 mm diameter skull opening was made in the left parietal bone using a surgical drill. The exposed area was covered with a 5 mm glass cover slip glued with dental acrylic. Carprofen and ampicillin were given for 3-5 days to prevent pain, inflammation and infection. Two weeks after surgery, mice were lightly anesthetized with isoflurane (4% for induction, 1-2% for maintenance) and held on a stereotaxic frame. A panoramic picture of the window was taken and then mice were transferred to an intravital microscope stage (customized McBain, San Diego, Calif.). Body temperature was maintained using a heating pad. […] Measurements of 6-10 pial venules (diameter range: 22-80 μm, velocity range: 2-4 mm/s) and 2-6 pial arterioles (diameter range: 18-70 μm, velocity range: 3-6 mm/s) were performed in each animal, and blood flow (Q) in each individual vessel was calculated using the equation: Q=V×(D/2)2.
The next day mice were inoculated intraperitoneally with 1×10^6 PbA-GFP pRBC. The intravital microscopy procedure was repeated daily from day 4 of infection until the mice died or were euthanized. Non-infected control mice were submitted to the same procedures. […]

Structure (SMILES)	survival ([1]; artemether 50 mg/kg IP daily for 5 days plus vehicle)	deaths occurring in the first 36 hours ([1]; vehicle-treated group (artemether plus vehicle))	survival ([1]; adjunctive nimodipine at 4 and 12 mg/kg IP at 0, 12, 24, 36 h with artemether 50 mg/kg IP daily for 5 days)	increase in arteriolar blood flow [2]
CO[C@H]1O[C@@H]2O[C@@]3(C)CC[C@H]4[C@H](C)CC[C@@H]([C@H]1C)[C@@]24OO3 [artemether]	32.2%	95.2%		
COCCOC(=O)C1=C(C)NC(C)=C(C(=O)OC(C)C)C1c1cccc([N+](=O)[O-])c1 (stereo not shown) [nimodipine]			60-66.6%	about 50%

Reference: patent US9737478B2, “Treatment of malaria” (National Institutes of Health (NIH), U.S. Dept. of Health …, priority 2009, dated 2017)
